Values belong to the compound of their own block, whether it stands above or below them.
Assays:
[1] = target: NAD(P)H dehydrogenase [quinone] 1 (Homo sapiens, UniProt P15559); experiment: Inhibition of recombinant human NQO1 expressed in Escherichia coli using DCPIP as substrate by spectrophotometry
SK-OV-3 [2] = experiment: Cytotoxicity against human SKOV3 cells assessed as reduction in cell viability incubated for 24 hrs by MTT assay; conditions: SK-OV-3, 24 h
SK-OV-3 [3] = experiment: Cytotoxicity against human SKOV3 cells assessed as reduction in cell viability incubated for 96 hrs by MTT assay; conditions: SK-OV-3, 96 h
SK-OV-3 [4] = experiment: Cytotoxicity against human SKOV3 cells transfected with non-targeted vector assessed as reduction in cell viability incubated for 96 hrs in presence of doxycycline by MTT assay; conditions: SK-OV-3, 96 h
SK-OV-3 [5] = experiment: Cytotoxicity against human SKOV3 cells transfected with shRNA assessed as reduction in cell viability incubated for 96 hrs in presence of doxycycline by MTT assay; conditions: SK-OV-3, 96 h
TOV112D [6] = experiment: Cytotoxicity against human TOV112D cells transfected with empty vector assessed as reduction in cell viability incubated for 96 hrs by MTT assay
TOV112D [7] = experiment: Cytotoxicity against human TOV112D cells expressing NQO2 assessed as reduction in cell viability incubated for 96 hrs by MTT assay

Chain of NAD(P)H dehydrogenase [quinone] 1 (P15559 whole entry): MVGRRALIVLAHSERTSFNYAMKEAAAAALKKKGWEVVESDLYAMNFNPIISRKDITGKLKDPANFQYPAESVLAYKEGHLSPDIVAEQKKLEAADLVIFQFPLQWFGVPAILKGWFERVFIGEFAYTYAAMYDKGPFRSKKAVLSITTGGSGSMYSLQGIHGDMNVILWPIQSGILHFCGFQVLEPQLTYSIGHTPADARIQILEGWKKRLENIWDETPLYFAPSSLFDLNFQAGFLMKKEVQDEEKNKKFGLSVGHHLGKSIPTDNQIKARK

- IC50 ([1]; read-out: IC50): 0.425 µM
SMILES: COc1ccc2nc(-c3ccccc3)cc(N/N=C/c3c[nH]cn3)c2c1
- IC50 (SK-OV-3 [2]): 2.47 µM
- IC50 (SK-OV-3 [3]): 2.17 µM

SMILES: COc1ccc2nc(C)cc(N/N=C/c3ccccc3)c2c1
- IC50 (SK-OV-3 [2]): 1.77 µM
- IC50 (SK-OV-3 [3]): 1.73 µM

SMILES: COc1ccc2nc(-c3ccccc3)cc(N/N=C/c3ccc(N(C)C)cc3)c2c1
- IC50 (SK-OV-3 [2]): 1.57 µM
- IC50 (SK-OV-3 [3]): 1.53 µM

SMILES: Oc1ccc(/C=C/c2cc(O)cc(O)c2)cc1 [RESVERATROL]
- IC50 (SK-OV-3 [2]): 91.7 µM
- IC50 (SK-OV-3 [3]): 36.3 µM
- IC50 (SK-OV-3 [4]): 29 µM
- IC50 (SK-OV-3 [5]): 39.7 µM
- IC50 (TOV112D [6]): 10.7 µM
- IC50 (TOV112D [7]): 11 µM

SMILES: Nc1c2ccccc2nc2ccccc12 [AMINACRINE]
- IC50 (SK-OV-3 [2]): 5.43 µM
- IC50 (SK-OV-3 [3]): 2.78 µM
- IC50 (SK-OV-3 [4]): 2.53 µM
- IC50 (SK-OV-3 [5]): 2.57 µM
- IC50 (TOV112D [6]): 3.6 µM
- IC50 (TOV112D [7]): 3.15 µM

SMILES: COc1ccc2nc(C)cc(N/N=C/c3c[nH]cn3)c2c1
- IC50 (SK-OV-3 [2]): 32 µM
- IC50 (SK-OV-3 [3]): 4.2 µM
- IC50 (SK-OV-3 [4]): 6.9 µM
- IC50 (SK-OV-3 [5]): 6.73 µM
- IC50 (TOV112D [6]): 3.65 µM
- IC50 (TOV112D [7]): 3.72 µM

SMILES: COc1ccc2nc(C)cc(N/N=C/c3ccc(F)cc3)c2c1
- IC50 (SK-OV-3 [2]): 2.3 µM
- IC50 (SK-OV-3 [3]): 2.3 µM

- IC50 [1]: Not Active
SMILES: COc1ccc2nc(C)cc(N/N=C/Cc3ccccc3)c2c1
- IC50 (SK-OV-3 [2]): 50 µM
- IC50 (SK-OV-3 [3]): 40.7 µM
- IC50 (SK-OV-3 [4]): 44.7 µM
- IC50 (SK-OV-3 [5]): 49.7 µM
- IC50 (TOV112D [6]): 42.5 µM
- IC50 (TOV112D [7]): 41 µM

- IC50 [1]: Not Active
SMILES: COc1ccc2nc(C)cc(NNC(=O)c3ccc(F)cc3)c2c1
- IC50 (SK-OV-3 [2]): > 100 µM
- IC50 (SK-OV-3 [3]): > 100 µM
- IC50 (SK-OV-3 [4]): > 100 µM
- IC50 (SK-OV-3 [5]): > 100 µM
- IC50 (TOV112D [6]): 61.3 µM
- IC50 (TOV112D [7]): 57.3 µM

SMILES: COc1ccc2nc(C)cc(N/N=C/c3cccc(OC)c3O)c2c1
- IC50 (SK-OV-3 [2]): 2.1 µM
- IC50 (SK-OV-3 [3]): 2 µM
- IC50 (SK-OV-3 [4]): 2.7 µM
- IC50 (SK-OV-3 [5]): 2.78 µM
- IC50 (TOV112D [6]): 3.4 µM
- IC50 (TOV112D [7]): 3.77 µM

SMILES: COc1ccc2nc(C)cc(N/N=C/c3ccc(O)cc3)c2c1
- IC50 (SK-OV-3 [2]): 2.75 µM
- IC50 (SK-OV-3 [3]): 2.3 µM
- IC50 (SK-OV-3 [4]): 2.87 µM
- IC50 (SK-OV-3 [5]): 2.58 µM
- IC50 (TOV112D [6]): 3.17 µM
- IC50 (TOV112D [7]): 2.98 µM

SMILES: COc1ccc2nc(C)cc(NN)c2c1
- IC50 (SK-OV-3 [2]): 84 µM
- IC50 (SK-OV-3 [3]): 41 µM

SMILES: COc1ccc2nc(C)cc(NNC(=O)c3ccccc3)c2c1
- IC50 (SK-OV-3 [2]): 68.3 µM
- IC50 (SK-OV-3 [3]): 43.3 µM

- IC50 [1]: Not Active
SMILES: COc1ccc2nc(-c3ccccc3)cc(N/N=C/c3cccc(OC)c3O)c2c1
- IC50 (SK-OV-3 [2]): 2.88 µM
- IC50 (SK-OV-3 [3]): 2.73 µM

- IC50 [1]: Not Active
SMILES: COc1ccc2nc(-c3ccccc3)cc(N/N=C/c3cccnc3)c2c1
- IC50 (SK-OV-3 [2]): 2.8 µM
- IC50 (SK-OV-3 [3]): 2.2 µM

- IC50 [1]: Not Active
SMILES: COc1ccc2nc(C)cc(N/N=C/c3ccc(C(=O)O)cc3)c2c1
- IC50 (SK-OV-3 [2]): > 100 µM
- IC50 (SK-OV-3 [3]): 70 µM
- IC50 (SK-OV-3 [4]): 65 µM
- IC50 (SK-OV-3 [5]): 61.3 µM
- IC50 (TOV112D [6]): > 100 µM
- IC50 (TOV112D [7]): > 100 µM
